Values quoted from earlier work as cited in US20210077417A1, “Methods and Compositions Particularly for Treatment of Attention Deficit Disorder” (Purdue Pharma L.P., priority 2018, published 2021).
Counter-ions that a name gives are not always drawn. Like-named read-outs stand apart in the source and are kept apart here.

Tests used:
[1] = system: patients with ADHD; conditions: reported

Molecule: COC(=O)C(c1ccccc1)C1CCCCN1 (racemic) [Methylphenidate, dl-threo-methyl-2-phenyl-2-(2-piperidyl)acetate]
- Stability (acidic solutions): relatively stable
- Degradation amount (hydrolysis of the methyl ester) (as the pH increases to 8.9): up to 100%
- Stability (basic solutions): degraded extensively

Molecule: COC(=O)C(c1ccccc1)C1CCCCN1 (stereo not shown) [Methylphenidate hydrochloride]
- Solubility (in acetone): slightly soluble
- Solubility (in alcohol): soluble
- Solubility (in chloroform): slightly soluble
- Solubility (in methanol): freely soluble
- Solubility (in water): freely soluble

Molecule: lisdexamfetamine dimesylate
- Duration of action [1]: up to 14 hours
- Onset of action [1]: does not have a rapid onset of action
